Assay results as given in PubChem BioAssay (NCI).
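Compound exposure: 48 hours, 5 concentrations, 96-well plates. Here, GI50 denotes the concentration required for 50% inhibition of growth. TGI: concentration producing complete growth inhibition.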

Columns and labels:
Assay in all cases: inhibition of tumour cell growth, NCI panel, 48 h
786-0 renal = system: 786-0 renal
A498 renal = system: A498 renal
A549 NSCLC = system: A549 NSCLC
ACHN renal = system: ACHN renal
BT-549 breast = system: BT-549 breast
CAKI-1 renal = system: CAKI-1 renal
CCRF-CEM leukemia = system: CCRF-CEM leukemia
COLO 205 colon = system: COLO 205 colon
DU-145 prostate = system: DU-145 prostate
EKVX NSCLC = system: EKVX NSCLC
HCC-2998 colon = system: HCC-2998 colon
HCT-116 colon = system: HCT-116 colon
HCT-15 colon = system: HCT-15 colon
HL-60(TB) leukemia = system: HL-60(TB) leukemia
HOP-62 NSCLC = system: HOP-62 NSCLC
HOP-92 NSCLC = system: HOP-92 NSCLC
HS 578T breast = system: HS 578T breast
HT29 colon = system: HT29 colon
IGROV1 ovarian = system: IGROV1 ovarian
K-562 leukemia = system: K-562 leukemia
KM12 colon = system: KM12 colon
LOX IMVI melanoma = system: LOX IMVI melanoma
M14 melanoma = system: M14 melanoma
MALME-3M melanoma = system: MALME-3M melanoma
MCF7 breast = system: MCF7 breast
MDA-MB-231 breast = system: MDA-MB-231 breast
MDA-MB-435 = system: MDA-MB-435
MDA-MB-468 breast = system: MDA-MB-468 breast
MOLT-4 leukemia = system: MOLT-4 leukemia
NCI-H226 lung = system: NCI-H226 lung
NCI-H23 lung = system: NCI-H23 lung
NCI-H460 lung = system: NCI-H460 lung
NCI-H522 lung = system: NCI-H522 lung
NCI/ADR-RES ovarian = system: NCI/ADR-RES ovarian
OVCAR-3 ovarian = system: OVCAR-3 ovarian
OVCAR-4 ovarian = system: OVCAR-4 ovarian
OVCAR-5 ovarian = system: OVCAR-5 ovarian
OVCAR-8 ovarian = system: OVCAR-8 ovarian
PC-3 prostate = system: PC-3 prostate
RPMI-8226 leukemia = system: RPMI-8226 leukemia
SF-268 CNS = system: SF-268 CNS
SF-295 CNS = system: SF-295 CNS
SF-539 CNS = system: SF-539 CNS
SK-MEL-2 melanoma = system: SK-MEL-2 melanoma
SK-MEL-28 melanoma = system: SK-MEL-28 melanoma
SK-MEL-5 melanoma = system: SK-MEL-5 melanoma
SK-OV-3 ovarian = system: SK-OV-3 ovarian
SN12C renal = system: SN12C renal
SNB-19 CNS = system: SNB-19 CNS
SNB-75 CNS = system: SNB-75 CNS
SR leukemia = system: SR leukemia
SW-620 colon = system: SW-620 colon
T-47D breast = system: T-47D breast
TK-10 renal = system: TK-10 renal
U251 CNS = system: U251 CNS
UACC-257 melanoma = system: UACC-257 melanoma
UACC-62 melanoma = system: UACC-62 melanoma
UO-31 renal = system: UO-31 renal

SMILES: COC(=O)c1ccc(-n2cc(CCCN(CCNc3ccnc4cc(Cl)ccc34)C(=O)CCC(=O)O[C@@H]3O[C@@H]4OC5(C)CC[C@H]6[C@H](C)CC[C@@H]([C@H]3C)[C@@]46OO5)nn2)cc1
- GI50 (786-0 renal): 3.74 µM
- TGI (786-0 renal): > 10.8 µM
- GI50 (A498 renal): > 10.8 µM
- TGI (A498 renal): > 10.8 µM
- GI50 (A549 NSCLC): 1.79 µM
- TGI (A549 NSCLC): > 10.8 µM
- GI50 (ACHN renal): 1.87 µM
- TGI (ACHN renal): > 10.8 µM
- GI50 (BT-549 breast): 0.541 µM
- TGI (BT-549 breast): > 10.8 µM
- GI50 (CAKI-1 renal): 6.83 µM
- TGI (CAKI-1 renal): > 10.8 µM
- GI50 (CCRF-CEM leukemia): 0.506 µM
- TGI (CCRF-CEM leukemia): > 10.8 µM
- GI50 (COLO 205 colon): 0.355 µM
- TGI (COLO 205 colon): > 10.8 µM
- GI50 (DU-145 prostate): > 10.8 µM
- TGI (DU-145 prostate): > 10.8 µM
- GI50 (EKVX NSCLC): 0.827 µM
- TGI (EKVX NSCLC): > 10.8 µM
- GI50 (HCC-2998 colon): 2 µM
- TGI (HCC-2998 colon): > 10.8 µM
- GI50 (HCT-116 colon): 0.155 µM
- TGI (HCT-116 colon): > 10.8 µM
- GI50 (HCT-15 colon): 0.246 µM
- TGI (HCT-15 colon): 2.13 µM
- GI50 (HL-60(TB) leukemia): 0.334 µM
- TGI (HL-60(TB) leukemia): 1.6 µM
- GI50 (HOP-62 NSCLC): > 10.8 µM
- TGI (HOP-62 NSCLC): > 10.8 µM
- GI50 (HOP-92 NSCLC): 0.28 µM
- TGI (HOP-92 NSCLC): 2.82 µM
- GI50 (HS 578T breast): 0.751 µM
- TGI (HS 578T breast): > 10.8 µM
- GI50 (HT29 colon): 0.519 µM
- TGI (HT29 colon): > 10.8 µM
- GI50 (IGROV1 ovarian): 1.88 µM
- TGI (IGROV1 ovarian): > 10.8 µM
- GI50 (K-562 leukemia): 0.247 µM
- TGI (K-562 leukemia): 7.23 µM
- GI50 (KM12 colon): 0.319 µM
- TGI (KM12 colon): > 10.8 µM
- GI50 (LOX IMVI melanoma): 0.429 µM
- TGI (LOX IMVI melanoma): 6 µM
- GI50 (M14 melanoma): 2.65 µM
- TGI (M14 melanoma): > 10.8 µM
- GI50 (MALME-3M melanoma): 1.25 µM
- TGI (MALME-3M melanoma): 2.75 µM
- GI50 (MCF7 breast): 0.444 µM
- TGI (MCF7 breast): 2.32 µM
- GI50 (MDA-MB-231 breast): 6.84 µM
- TGI (MDA-MB-231 breast): > 10.8 µM
- GI50 (MDA-MB-435): 0.508 µM
- TGI (MDA-MB-435): 3.63 µM
- GI50 (MDA-MB-468 breast): 0.619 µM
- TGI (MDA-MB-468 breast): 10.3 µM
- GI50 (MOLT-4 leukemia): 0.216 µM
- TGI (MOLT-4 leukemia): 4.45 µM
- GI50 (NCI-H226 lung): 1.11 µM
- TGI (NCI-H226 lung): > 10.8 µM
- GI50 (NCI-H23 lung): 0.633 µM
- TGI (NCI-H23 lung): > 10.8 µM
- GI50 (NCI-H460 lung): 6.15 µM
- TGI (NCI-H460 lung): > 10.8 µM
- GI50 (NCI-H522 lung): 0.442 µM
- TGI (NCI-H522 lung): > 10.8 µM
- GI50 (NCI/ADR-RES ovarian): 1.76 µM
- TGI (NCI/ADR-RES ovarian): > 10.8 µM
- GI50 (OVCAR-3 ovarian): 0.397 µM
- TGI (OVCAR-3 ovarian): > 10.8 µM
- GI50 (OVCAR-4 ovarian): 0.546 µM
- TGI (OVCAR-4 ovarian): > 10.8 µM
- GI50 (OVCAR-5 ovarian): 0.796 µM
- TGI (OVCAR-5 ovarian): > 10.8 µM
- GI50 (OVCAR-8 ovarian): 0.55 µM
- TGI (OVCAR-8 ovarian): 3.85 µM
- GI50 (PC-3 prostate): 0.0917 µM
- TGI (PC-3 prostate): > 10.8 µM
- GI50 (RPMI-8226 leukemia): 0.189 µM
- TGI (RPMI-8226 leukemia): > 10.8 µM
- GI50 (SF-268 CNS): 2.58 µM
- TGI (SF-268 CNS): > 10.8 µM
- GI50 (SF-295 CNS): 3.24 µM
- TGI (SF-295 CNS): > 10.8 µM
- GI50 (SF-539 CNS): 3.15 µM
- TGI (SF-539 CNS): > 10.8 µM
- GI50 (SK-MEL-2 melanoma): 2.4 µM
- TGI (SK-MEL-2 melanoma): > 10.8 µM
- GI50 (SK-MEL-28 melanoma): 1.33 µM
- TGI (SK-MEL-28 melanoma): > 10.8 µM
- GI50 (SK-MEL-5 melanoma): 0.755 µM
- TGI (SK-MEL-5 melanoma): 2.41 µM
- GI50 (SK-OV-3 ovarian): > 10.8 µM
- TGI (SK-OV-3 ovarian): > 10.8 µM
- GI50 (SN12C renal): 1.68 µM
- TGI (SN12C renal): > 10.8 µM
- GI50 (SNB-19 CNS): > 10.8 µM
- TGI (SNB-19 CNS): > 10.8 µM
- GI50 (SNB-75 CNS): 1.01 µM
- TGI (SNB-75 CNS): > 10.8 µM
- GI50 (SR leukemia): 0.314 µM
- TGI (SR leukemia): 4.09 µM
- GI50 (SW-620 colon): 0.375 µM
- TGI (SW-620 colon): > 10.8 µM
- GI50 (T-47D breast): 0.254 µM
- TGI (T-47D breast): > 10.8 µM
- GI50 (TK-10 renal): > 10.8 µM
- TGI (TK-10 renal): > 10.8 µM
- GI50 (U251 CNS): 0.805 µM
- TGI (U251 CNS): > 10.8 µM
- GI50 (UACC-257 melanoma): 0.89 µM
- TGI (UACC-257 melanoma): > 10.8 µM
- GI50 (UACC-62 melanoma): 0.72 µM
- TGI (UACC-62 melanoma): > 10.8 µM
- GI50 (UO-31 renal): 1.03 µM
- TGI (UO-31 renal): > 10.8 µM
